From patent US20230149401A1 (priority 2020, published 2023)

Key:
SARS-CoV-2 [1] = type: cell-based
PC7 (PCSK7) = target: T1, PC7 (PCSK7) (Homo sapiens, UniProt Q16549); test: Biochemical PC-inhibition assay, substrate FAM-[…]-TAMRA
T1 construct: PC7 (PCSK7; 142-634-Tev-Flag-6His); Tev site (C); Flag (C); 6His (C); made in house; host or cells: BacMam transduced CHO cells
Procedure: (§1) Biochemical assay: The proprotein convertases furin (108-574-Tev-Flag-6His), PC5A (PCSK5; […]-Tev-Flag-6His), PACE4 (PCSK6; 150-693-Tev-Flag-6His), and PC7 (PCSK7; 142-634-Tev-Flag-6His) enzymes were purified from BacMam transduced CHO cells. […] 0.05 μl of each concentration was transferred to the corresponding well of an assay plate, and then 5 μl of enzyme (furin, PCSK5, PCSK6, and PCSK7) in assay buffer (100 mM HEPES pH 7.5, 1 mM CaCl2) and 0.005% Triton X-100) was added using a Multidrop Combi (Thermo) to the compound plates to give a final protein concentration of 0.02, 0.5, 2.5, and 1.0 nM respectively. The plates were mixed by inversion, and following a 30 min preincubation of enzyme with compound at room temperature (˜22° C.), the substrate FAM-[…] -TAMRA (AnaSpec #808143, 5 μl of a 1, 0.25, 0.20, and 0.5 μM solution in assay buffer for furin, PCSK5, PCSK6, and PCSK7 respectively) was added using a Multidrop Combi to the entire assay plate. The plates were centrifuged at 500×g for 1 minute and incubated at room temperature for two hours. Enzyme inhibition was then quantified using an Envision instrument (PerkinElmer). Data were normalized to maximal inhibition determined by 1 μM Decanoyl-Arg-Val-Lys-Arg-Chloromethylketone (Calbiochem #344930). Golgi imaging assay: This assay uses an image-based platform to evaluate the intracellular activity of furin inhibitors. Reactions were performed in black 384-well, tissue culture-treated, clear bottom plates (Greiner). Compounds under analysis were dissolved in DMSO (1.0 mM) and serially diluted 1 to 3 with DMSO through eleven dilutions. This creates a final compound concentration range from 0.00017 to 10 μM, and 0.1 μL of each concentration was transferred to the corresponding well of the assay plate.

PACE4 (PCSK6) = target: T2, PACE4 (PCSK6) (Homo sapiens, UniProt P29122); test: as above
T2 construct: PACE4 (PCSK6; 150-693-Tev-Flag-6His); Tev site (C); Flag (C); 6His (C); made in house; host or cells: BacMam transduced CHO cells
T2 sequence (P29122 150-693): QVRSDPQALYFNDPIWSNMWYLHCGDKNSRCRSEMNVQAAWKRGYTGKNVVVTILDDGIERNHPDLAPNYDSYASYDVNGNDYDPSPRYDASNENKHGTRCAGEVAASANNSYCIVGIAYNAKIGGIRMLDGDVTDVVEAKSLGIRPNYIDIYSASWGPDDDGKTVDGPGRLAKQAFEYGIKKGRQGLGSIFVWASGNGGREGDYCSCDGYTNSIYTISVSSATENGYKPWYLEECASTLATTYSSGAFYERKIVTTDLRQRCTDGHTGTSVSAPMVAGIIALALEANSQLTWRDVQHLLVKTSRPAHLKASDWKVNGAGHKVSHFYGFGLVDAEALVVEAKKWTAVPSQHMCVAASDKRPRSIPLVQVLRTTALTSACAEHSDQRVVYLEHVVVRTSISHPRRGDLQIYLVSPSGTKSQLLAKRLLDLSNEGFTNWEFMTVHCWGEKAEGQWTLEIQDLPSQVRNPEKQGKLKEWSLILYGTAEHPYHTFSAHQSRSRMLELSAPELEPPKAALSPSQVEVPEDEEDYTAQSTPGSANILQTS
Procedure: as §1

PC5A (PCSK5) = target: T3, PC5A (PCSK5) (Homo sapiens, UniProt Q92824); test: as above
T3 construct: fused on or other part: C-terminal Tev site, Flag tag and 6His tag
T3 sequence (Q92824 115-601): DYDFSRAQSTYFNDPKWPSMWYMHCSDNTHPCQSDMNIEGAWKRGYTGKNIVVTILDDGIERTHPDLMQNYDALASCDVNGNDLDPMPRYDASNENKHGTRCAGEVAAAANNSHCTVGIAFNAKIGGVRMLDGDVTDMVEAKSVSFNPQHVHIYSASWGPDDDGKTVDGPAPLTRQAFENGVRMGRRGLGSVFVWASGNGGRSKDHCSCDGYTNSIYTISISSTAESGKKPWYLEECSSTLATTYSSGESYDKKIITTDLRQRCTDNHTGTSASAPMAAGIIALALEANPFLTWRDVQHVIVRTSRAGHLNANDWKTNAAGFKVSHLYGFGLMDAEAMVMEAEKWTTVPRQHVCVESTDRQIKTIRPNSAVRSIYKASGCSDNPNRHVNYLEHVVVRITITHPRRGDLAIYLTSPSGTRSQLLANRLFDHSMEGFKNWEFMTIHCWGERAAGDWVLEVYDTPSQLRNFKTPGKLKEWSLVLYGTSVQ
Procedure: as §1

furin-like convertases = type: cell-based; conditions: 1 μM; 293T17 producing cells and pseudovirions
TMPRSS2 = TMPRSS2 (Homo sapiens, UniProt O15393); type: cell-based; design: expressed in transfected cells; host or cells: HeLa; conditions: HeLa cells
Chain of TMPRSS2 (O15393 whole entry): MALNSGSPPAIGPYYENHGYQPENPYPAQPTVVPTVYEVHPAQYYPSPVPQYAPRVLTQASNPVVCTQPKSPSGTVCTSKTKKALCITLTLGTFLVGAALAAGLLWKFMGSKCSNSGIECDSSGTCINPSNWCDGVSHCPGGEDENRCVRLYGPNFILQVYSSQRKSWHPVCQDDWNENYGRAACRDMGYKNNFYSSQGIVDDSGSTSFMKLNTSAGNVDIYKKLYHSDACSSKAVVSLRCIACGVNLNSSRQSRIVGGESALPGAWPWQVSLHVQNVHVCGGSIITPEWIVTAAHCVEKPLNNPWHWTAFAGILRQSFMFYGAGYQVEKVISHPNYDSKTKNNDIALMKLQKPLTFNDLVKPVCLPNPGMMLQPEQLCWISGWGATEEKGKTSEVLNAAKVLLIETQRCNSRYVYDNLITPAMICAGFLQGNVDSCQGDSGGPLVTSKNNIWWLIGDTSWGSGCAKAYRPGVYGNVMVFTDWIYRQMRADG

[2] = tested on: endogenous furin-like enzymes; type: cell-based; conditions: HeLa-ACE2 cells
[3] = tested on: HIV particles pseudotyped with SARS-CoV-2 S; type: cell-based
[4] = tested on: SARS-CoV-2 Spike ACE2-dependent cell-to-cell fusion; test: microbe, parasite or virus in culture; type: cell-based; conditions: Severe acute respiratory syndrome coronavirus 2; 300 nM
SARS-CoV-2 [5] = test: microbe, parasite or virus in culture; type: cell-based

T1 sequence (Q16549 142-634): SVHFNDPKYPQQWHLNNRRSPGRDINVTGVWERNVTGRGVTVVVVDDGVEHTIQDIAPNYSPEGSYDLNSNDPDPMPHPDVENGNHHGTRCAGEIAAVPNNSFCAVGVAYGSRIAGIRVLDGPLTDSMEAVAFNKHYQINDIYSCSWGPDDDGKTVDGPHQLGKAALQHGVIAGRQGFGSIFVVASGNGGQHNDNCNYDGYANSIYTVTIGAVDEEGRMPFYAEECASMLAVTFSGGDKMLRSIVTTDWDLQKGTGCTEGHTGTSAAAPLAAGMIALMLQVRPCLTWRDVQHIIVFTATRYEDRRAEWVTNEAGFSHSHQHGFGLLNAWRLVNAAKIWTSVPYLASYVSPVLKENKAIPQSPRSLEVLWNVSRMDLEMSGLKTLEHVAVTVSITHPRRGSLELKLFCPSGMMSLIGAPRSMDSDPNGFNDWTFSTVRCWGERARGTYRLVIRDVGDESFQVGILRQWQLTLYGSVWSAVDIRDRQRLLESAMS

CN1CCN(c2ncc(Oc3cc(CN4CCC(CC(=O)O)CC4)cc(-c4cc(Cl)cc(Cl)c4)n3)cn2)CC1 [Compound 93, 2-(1-((2-(3,5-dichloro-phenyl)-6-((2-(4-methyl-piperazin-1-yl)pyrimidin-5-yl)oxy)pyridin-4-yl)methyl)piperidin-4-yl)acetic acid] was tested, and the “Virus production in infected Vero E6 cells” value (SARS-CoV-2 [1]) was “modestly reduce virus production”, the “Decrease in virus production” value (SARS-CoV-2 [1]; 1 μM) was ~5.7 fold and the IC50 (PC7 (PCSK7)) was ~7 nM. For the same compound, the IC50 (PACE4 (PCSK6)) was ~7 nM, the IC50 (PC5A (PCSK5)) was ~7 nM and the “Processing of WT-S” value (furin-like convertases) was “clearly impaired”. The “Generation of S2a and S2b by TMPRSS2” value (TMPRSS2) was “none of the compounds affected”, the “S1/S2 and S2′ processing by endogenous furin-like enzymes” value [2] was “blocked” and the “Viral entry in Calu-3 of pseudovirions packaged in presence of inhibitor” value [3] was “prevents viral entry”. The inhibition at 0.3 µM [4] was > 60%, the “Concentration from which inhibitory effect could be observed” value (SARS-CoV-2 [5]) was 0.25 µM and the “Levels of viral spike and nucleocapsid proteins and progeny virus levels” value (SARS-CoV-2 [5]) was “similarly decreased”. The “Viral titers at 12, 24 and 48h post-infection” value (SARS-CoV-2 [5]) was “significantly decreased”, the “Reduction of titer of progeny viruses” value (SARS-CoV-2 [5]; 1 μM) was “more than 30 fold” and the IC50 (SARS-CoV-2 [5]; Severe acute respiratory syndrome coronavirus 2, Calu-3, 24 h, read-out: IC50 (virus titer)) was 200 nM.
